# Reference: ChEMBL document CHEMBL3244391, “Antiviral activity of aliphatic nucleoside analogues: structure-function relationship” (1979)
# Test system: Vesicular stomatitis virus
# Assay: Antiviral activity against Vesicular stomatitis virus infected in rabbit primary kidney cells assessed as inhibition of viral cytopathogenicity after 2 days
# Assay type: functional
row,SMILES,MID [µg/mL]
1,Nc1ncnc2c1ncn2C[C@@H](O)CO,300
2,OC[C@@H](O)Cn1cnc2c(O)ncnc21,>400
3,O=c1ccn(C[C@H](O)CO)c(=O)[nH]1,400
4,Cc1cn(C[C@H](O)CO)c(=O)[nH]c1=O,>400
5,Cc1cn(C[C@@H](O)CO)c(=O)[nH]c1=O,>400
6,Cc1c[nH]c(=O)n(C[C@H](O)CO)c1=O,>400
7,NCCn1cnc2c(N)ncnc21,>400
8,CC(=O)OC[C@H](Cn1cnc2c(N)ncnc21)OC(C)=O,300
9,Nc1ncnc2c1ncn2CC[C@H](O)CO,100
10,Nc1ncnc2c1ncn2C[C@@H](O)[C@@H](O)CO,300
11,Nc1ncnc2c1ncn2C[C@H](O)[C@H](O)CO,100
12,Nc1ncnc2c1ncn2C[C@@H](O)[C@H](O)CO,300
13,Nc1ncnc2c1ncn2C[C@H](O)[C@@H](O)CO,>400
14,O=c1ccn(CC[C@H](O)CO)c(=O)[nH]1,>400
15,O=c1ccn(C[C@@H](O)[C@H](O)CO)c(=O)[nH]1,400
16,Nc1ncnc2c1ncn2C(CO)CO,300
17,Nc1ncnc2c1ncn2CCCO,200
18,Nc1ncnc2c1ncn2CCO,>400
19,Nc1ncnc2c1ncn2CC(O)CO (racemic),20

row,SMILES,MID [µg/mL]
1,Nc1nc(O)c2c(ncn2CC(O)CO)n1 (racemic),>400
2,Nc1ncnc2c1ncn2CCC(O)CO (racemic),200
3,Nc1ncnc2c1ncn2CCC(O)CCO (racemic),>400
4,Nc1nc(N)c2ncn(CC(O)CO)c2n1 (racemic),>400
5,CSc1nc(N)c2ncn(CC(O)CO)c2n1 (racemic),>400
6,Nc1ncnc2c1nc(O)n2CC(O)CO (racemic),>400
7,Nc1ncnc2c1nc(S)n2CC(O)CO (racemic),>400
8,CNc1ncnc2c1ncn2CC(O)CO (racemic),>400
9,CN(C)c1ncnc2c1ncn2CC(O)CO (racemic),>400
10,OCC(O)Cn1cnc2c(S)ncnc21 (racemic),>400
11,Nc1nc2c(ncn2CC(O)CO)c(=O)[nH]1 (racemic),>400
12,Nc1c2ncn(CC(O)CO)c2nc[n+]1[O-] (racemic),>400
13,Nc1ccn(CC(O)CO)c(=O)n1 (racemic),400
14,O=c1cnn(CC(O)CO)c(=O)[nH]1 (racemic),>400
15,CCC(=O)OCC(Cn1cnc2c(N)ncnc21)OC(=O)CC (racemic),300
16,CCCCCCCCCCCCCCCC(=O)OCC(O)Cn1cnc2c(N)ncnc21 (racemic),>400
17,CC(C)(C)C(=O)OCC(O)Cn1cnc2c(N)ncnc21 (racemic),>400
18,CC(C)(C)C(=O)OCC(Cn1cnc2c(N)ncnc21)OC(=O)C(C)(C)C (racemic),>400
19,COC(CO)Cn1cnc2c(N)ncnc21 (racemic),300

row,SMILES,MID [µg/mL]
1,COCC(O)Cn1cnc2c(N)ncnc21 (racemic),>400
2,COCC(Cn1cnc2c(N)ncnc21)OC (racemic),300
3,[N-]=[N+]=NCC(O)Cn1cnc2c(N)ncnc21 (racemic),200
4,[N-]=[N+]=NCC(Cn1cnc2c(N)ncnc21)N=[N+]=[N-] (racemic),400
5,Nc1ncnc2c1ncn2CC(N)CO (racemic),100
6,NCC(O)Cn1cnc2c(N)ncnc21 (racemic),200
7,NCC(N)Cn1cnc2c(N)ncnc21 (racemic),>400
8,Nc1ncnc2c1ncn2CC(O)C(O)CO (racemic),200
9,O=c1ccn(CC(O)C(O)CO)c(=O)[nH]1 (racemic),>400
10,O=c1ccn(C[C@H](O)[C@H](O)CO)c(=O)[nH]1 (racemic),>400
11,O=c1ccn(CCC(O)CCO)c(=O)[nH]1 (racemic),>400
12,C[C@@H](O)[C@@H](O)Cn1cnc2c(N)ncnc21 (racemic),100
13,CC(O)Cn1cnc2c(N)ncnc21 (racemic),>400
14,Nc1ncnc2c1nc(Br)n2CC(O)CO (racemic),>200
15,Nc1ncnc2c1ncn2C[C@H](O)CO [(S)-DHPA],7
16,Nc1ccn([C@@H]2O[C@H](CO)[C@@H](O)[C@@H]2O)c(=O)n1 [CYTARABINE],10
17,O=c1[nH]c(=O)n([C@H]2C[C@H](O)[C@@H](CO)O2)cc1I [IDOXURIDINE],>400
18,Nc1ncnc2c1ncn2[C@@H]1O[C@H](CO)[C@@H](O)[C@@H]1O [VIDARABINE],20
